The source of these data is ChEMBL document CHEMBL3739322, “Novel oxime-bearing coumarin derivatives act as potent Nrf2/ARE activators in vitro and in mouse model” (Eur J Med Chem, 2015).

This assay addresses T1, Nuclear factor erythroid 2-related factor 2 (Homo sapiens) (UniProt Q16236).
T1 sequence (whole entry): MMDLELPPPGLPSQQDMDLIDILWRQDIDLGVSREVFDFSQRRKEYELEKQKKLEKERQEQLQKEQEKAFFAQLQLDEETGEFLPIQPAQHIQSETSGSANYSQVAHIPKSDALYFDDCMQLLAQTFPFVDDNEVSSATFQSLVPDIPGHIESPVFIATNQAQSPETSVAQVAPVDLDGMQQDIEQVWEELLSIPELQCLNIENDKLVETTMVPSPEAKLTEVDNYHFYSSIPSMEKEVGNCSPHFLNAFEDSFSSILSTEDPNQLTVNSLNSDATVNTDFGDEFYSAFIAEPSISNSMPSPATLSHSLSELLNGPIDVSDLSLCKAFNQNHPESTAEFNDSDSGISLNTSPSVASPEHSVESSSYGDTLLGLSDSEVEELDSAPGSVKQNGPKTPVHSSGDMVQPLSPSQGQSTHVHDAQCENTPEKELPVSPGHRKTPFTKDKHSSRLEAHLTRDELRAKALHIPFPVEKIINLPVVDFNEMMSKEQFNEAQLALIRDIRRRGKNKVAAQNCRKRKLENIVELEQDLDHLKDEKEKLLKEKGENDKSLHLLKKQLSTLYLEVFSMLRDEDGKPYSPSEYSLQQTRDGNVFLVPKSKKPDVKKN
The assay is described as follows: Activation of Nrf2 in human HSC3-ARE9 cells assessed as increase of ARE-mediated luciferase expression at 50 uM after 24 hrs relative to control. It counts as cell-based.
`O=C(COc1cc2ccccc2oc1=O)c1ccccc1`: the fold change (FC) is 1.72. The result for `O=C(COc1ccc2ccc(=O)oc2c1)Nc1ccc(-c2ccccc2)cc1` reads 1.09. As to `COc1ccc(C(=O)COc2ccc3ccc(=O)oc3c2)cc1`, the fold change (FC) was determined as 1.07. Regarding `O=C(COc1ccc2ccc(=O)oc2c1)Nc1ccc(F)cc1`, the fold change (FC) worked out at 1.16. As for `O=c1oc2ccccc2cc1OC/C(=N\O)c1ccc2ccccc2c1`, the fold change (FC) was 1.31. To `O=c1cc(OC/C(=N\O)c2ccc(-c3ccccc3)cc2)c2ccccc2o1` belongs 1.32; to `O=C(COc1ccc2ccc(=O)oc2c1)c1ccc2ccccc2c1`, 0.17.

With `O=c1cc(OC/C(=N\O)c2ccccc2)c2ccccc2o1`, the fold change (FC) came to 1.35. Turning to `COc1ccc(C(=O)COc2cc(=O)oc3ccccc23)cc1`, the fold change (FC) worked out at 1.36. Regarding `COc1ccc(/C(COc2ccc3oc(=O)ccc3c2)=N/O)cc1`, the fold change (FC) amounted to 1.33. For the compound `O=C(COc1cc2ccccc2oc1=O)c1ccc(F)cc1`, the fold change (FC) is 1.64.

For `CC(=O)COc1cc(=O)oc2ccccc12`, the fold change (FC) was 0.79. For `COc1ccc(NC(=O)COc2cc3ccccc3oc2=O)cc1`, the fold change (FC) stood at 0.95. In the case of `O=C(COc1cc(=O)oc2ccccc12)Nc1ccc(-c2ccccc2)cc1`, the fold change (FC) is 1.17. The result for `O=C(COc1ccc2ccc(=O)oc2c1)Nc1ccc2ccccc2c1` reads 1.06; that for `COc1ccc(NC(=O)COc2ccc3ccc(=O)oc3c2)cc1`, 0.98; that for `COc1ccc(/C(COc2cc3ccccc3oc2=O)=N/O)cc1`, 1.49. Take `C/C(COc1ccc2ccc(=O)oc2c1)=N\O`: the fold change (FC) turned out to be 1.68. To `O=c1ccc2cc(OC/C(=N\O)c3ccc(F)cc3)ccc2o1` belongs 2.32; to `O=C(COc1cc2ccccc2oc1=O)Nc1ccc(-c2ccccc2)cc1`, 1.22.

In the case of `O=c1ccc2ccc(OC/C(=N\O)c3ccc4ccccc4c3)cc2o1`, the fold change (FC) is 1.04. `C/C(COc1cc2ccccc2oc1=O)=N\O`: the fold change (FC) is 1.63. For the compound `O=c1ccc2cc(OC/C(=N\O)c3ccc4ccccc4c3)ccc2o1`, the fold change (FC) amounted to 1.46. As to `O=c1oc2ccccc2cc1OC/C(=N\O)c1ccc(-c2ccccc2)cc1`, the fold change (FC) is 1.44. With `CC(=O)COc1cc2ccccc2oc1=O`, the fold change (FC) is 0.92. To `O=c1cc(OC/C(=N\O)c2ccc3ccccc3c2)c2ccccc2o1` belongs 1.43; to `COc1ccc(C(=O)COc2cc3ccccc3oc2=O)cc1`, 1.54. With `COc1ccc(/C(COc2ccc3ccc(=O)oc3c2)=N/O)cc1`, the fold change (FC) came to 1.28. The result for `O=C(COc1cc(=O)oc2ccccc12)c1ccccc1` reads 1.98. The result for `O=c1ccc2ccc(OC/C(=N\O)c3ccc(F)cc3)cc2o1` reads 1.32; that for `O=C(COc1cc(=O)oc2ccccc12)Nc1ccccc1`, 1.06; that for `C/C(COc1ccc2oc(=O)ccc2c1)=N\O`, 1.64. As for `CC(=O)COc1ccc2ccc(=O)oc2c1`, the fold change (FC) is 1.09. In the case of `C/C(COc1cc(=O)oc2ccccc12)=N\O`, the fold change (FC) was found to be 1.37.

As for `O=c1ccc2ccc(OC/C(=N\O)c3ccc(-c4ccccc4)cc3)cc2o1`, the fold change (FC) stood at 0.9. To `O=C(COc1cc2ccccc2oc1=O)c1ccc2ccccc2c1` belongs 0.98; to `O=C(COc1cc(=O)oc2ccccc12)c1ccc(F)cc1`, 1.26.

As for `O=C(COc1cc(=O)oc2ccccc12)Nc1ccc(F)cc1`, the fold change (FC) was found to be 1.11. With `O=C(COc1ccc2oc(=O)ccc2c1)Nc1ccc(-c2ccccc2)cc1`, the fold change (FC) came to 0.95. Consider `O=c1ccc2cc(OC/C(=N\O)c3ccc(-c4ccccc4)cc3)ccc2o1`, for which the fold change (FC) is 1.5. Regarding `O=C(COc1ccc2oc(=O)ccc2c1)c1ccc(F)cc1`, the fold change (FC) was 1.58.
